In patent publication US11485728B2, “Small molecules for the treatment of autoimmune diseases and cancer” (Athos Therapeutics, Inc., priority 2020, dated 2022):

Tests used:
[1] = tested on: CaCo-2 intestinal epithelial cells; experiment: Transepithelial resistance (TEER) of CaCo-2 cells exposed to TNFα and IFNγ; assay type: cell-based; settings: for epithelial barrier resistance: TNFα 10 ng/ml, IFNγ 100 ng/ml, compounds 1 μM, 48 hrs of treatment; for transepithelial resistance after combined TNFα and IFNγ exposure: TNFα 20 ng/ml, IFNγ 200 ng/ml, 24 hrs of treatment
Procedure: The intestinal epithelial barrier plays a central role in the pathophysiology of multiple chronic inflammatory and autoimmune diseases. Intestinal epithelial cells provide a physical barrier that interacts with immune cells and protects internal cavities from mucosal bacterial and antigen intrusion. Intestinal inflammation during IBD is associated with disruption of this barrier and cytokines like TNFα play important roles.
At confluence TEER is measured and TNFα along with compounds are added as described above. Compound-induced TEER is determined after correction with measurement prior to treatment.

[2] = tested on: C57BL/6 mice with DSS colitis; experiment: DSS colitis in C57BL/6 mice; assay type: in vivo; settings: for Clinical Score: includes weight, bleeding, diarrhea, rectal prolapse; for protection against colitis induced weight loss / colitis-induced weight loss / colon length shortening: daily oral gavage; for protection against colitis induced weight loss: after d11; for colitis-induced weight loss / colon length shortening: d12; on Clinical Score: key: −: indicates no statistically significant effect in the variable measured when compared with the control group; +: indicates a statistically significant difference in the variable measured when compared with the control group; ++: indicates measurements that include multiple variables in the calculation of their differences when compared with the control group, and represents the presence of significant changes across all variable measurements
Procedure: Dextran sodium sulfate (DSS) was added to the water 24 hrs after compound administration and weight was measured daily.
C57BL/6 mice (20-22 grams) were fed ad lib and assigned to 4 different groups (n=8/group). […] A control group received vehicle alone. After 24 hrs, mice were weighed and DSS was added to their drinking water. Mice were then treated with the test compounds and weighed daily and the DSS water was replenished every 72 hrs for 5 days, at which point, it was replaced by regular drinking water. Mice were sacrificed on day twelve and clinical scored was assessed. Intestinal tissue for and blood were also collected. Tissues were either flash frozen and kept in −80° C. for RNA and protein isolation or placed in 10% formalin solution for future histological analysis. Blood was spun at 5K rpm for 5 min and serum was collected and kept at −20° C. for multiplex cytokine analysis.
DSS colitis mouse model: C57BL/6 mice (20-22 grains) are fed ad lib and assigned to different groups (n=8/group). […] A control group receives vehicle alone. After 24 h, mice are weighed and DSS is added to their drinking water. Mice are then treated with the test compounds and weighed daily and the DSS water is replenished every 72 liars for 5 days, at which point, it is replaced by regular drinking water. Mice are sacrificed on day twelve and clinical scored was assessed. Intestinal tissue for and blood are also collected. Tissues are either flash frozen and kept in −80° C. for RNA and protein isolation or placed in 10% formalin solution for future histological analysis.

[3] = Formulation visual stability (DMA/PG/PEG 300/water); assay type: physicochemical; settings: 25° C., 10-11 mg/mL in DMA/PG/PEG 300/Water
Procedure: All formulations were conducted with FDA approved excipients and with high purity material such as USP grade quality. Formulation stability of test articles are performed using HPLC purity method described within analytical section. This formula may be used for oral administration of the compounds described herein; […]. Since these compounds have high solubility in lower pH as described in the solubility study section, the intervenous delivery is performed with 100% phosphate buffer solution of pH 6.5 allowing up to 7 mg/mL concentration. The formulated test articles can be store at 4° C. Prior to dosing, it should be warmed and vortexed for about 1 min to make a homogenous solution. If needed, filter through 0.2 μM syringe filter to maintain clean and sterile.

5637 = 5637 bladder cancer cell viability (Real-Time-Glo); assay type: cell-based; settings: 72 hr; read-out: IC50, Cell line: 5637
Procedure: (§1) To determine the plating density for cell viability assays, for each cell line, cells were counted and diluted to final densities of 2.5, 5, 10 and 20 thousand per 100 μl of their respective growth media per well in 96 well plates. A Promega Real-Time-Glo cell viability kit was used to determine the optimal concentration for cell plating so that each cell line would be within the linear part of its growth curve after 72 hrs in culture. For the determination of test compound IC50s different cancer cell lines were plated in 96 well plates in the pre-determined optimal density for each cell line. Test compounds were then added at different concentrations for the creation of six-point curve and cell density was determined using the Promega Real-Time-Glo cell viability kit after 24, 48, and 72 hrs in culture. Test compound 72 hr IC50s were calculated using the AAT Bioquest IC50 calculator.
The following compounds are evaluated for their ability to block cancer cell growth in colon (HT-29), liver (HepG2), pancreatic (MiaPaca-2) and bladder (5637) cancer cell lines. Specifically, the Promega Real-Time-Glo cell viability kit was used to determine the optimal concentration for cell plating so that each cell line would be within the linear part of its growth curve after 72 hrs in culture. For the determination of test compound IC50s different cancer cell lines are plated in 96 well plates in the pre-determined optimal density for each cell line. Test compounds are then added at different concentrations for the creation of six-point curve and cell density is determined using the Promega Real-Time-Glo cell viability kit after 24, 48, and 72 hrs in culture. Test compound 72 hr IC50s is calculated using the AAT Bioquest IC50 calculator.

A-498 = A-498 kidney cancer cell viability (Real-Time-Glo); assay type: cell-based; settings: Homo sapiens, A498; 72 hr; read-out: IC50, Cell line: A-498
Procedure: as §1

[4] = 25 mg/kg PO daily, sacrificed day twelve
[5] = 50 mg/kg daily oral, d12 after DSS induction, vs vehicle
[6] = CaCo-2, TNFα along with compounds

COc1cc2c(NC3CCS(=O)(=O)CC3)nc(N3CCC(F)(F)CC3)nc2cc1OCCCN1CCCC1 [Compound 1, 4-((2-(4,4-difluoropiperidin-1-yl)-6-methoxy-7-(3-(pyrrolidin-1-yl)propoxy)quinazolin-4-yl)amino)tetrahydro-2H-thiopyran 1,1-dioxide]
epithelial barrier resistance [1]: recovered epithelial barrier resistance levels back to those of untreated cells
transepithelial resistance after combined TNFα and IFNγ exposure [1]: ameliorated the disruptive effects
TEER ([1]; vs control group): +
effect on the effects of DSS colitis (in words) ([2]; 25 mg/kg PO daily): alleviation of the effects of DSS colitis
Colon Length ([2]; 25 mg/kg PO daily, day twelve): +
Clinical Score ([2]; 25 mg/kg PO daily, day twelve): +
DSS Efficacy [2, 4]: +
DSS-induced weight loss ([2]; 50 mg/kg daily oral): resulted in increased weight
Colon Length [2, 5]: increased
protection against colitis induced weight loss [2]: significant protection against colitis induced weight loss
colitis-induced weight loss ([2]; vs vehicle): significantly prevented
colon length shortening ([2]; vs vehicle): significantly prevented
Appearance ([3]; 30 min): clear
Appearance ([3]; 1 h): clear
Appearance ([3]; 5 h): clear
Appearance ([3]; 24 h): clear
Appearance ([3]; 7 d): clear

COc1cc2c(NC3CCOCC3)nc(N3CCC(F)(F)CC3)nc2cc1OCCCN1CCCC1 [Compound 2, 2-(4,4-difluoropiperidin-1-yl)-6-methoxy-7-(3-(pyrrolidin-1-yl)propoxy)-N-(tetrahydro-2H-pyran-4-yl)quinazolin-4-amine]
epithelial barrier resistance [1]: recovered epithelial barrier resistance levels back to those of untreated cells
transepithelial resistance after combined TNFα and IFNγ exposure [1]: ameliorated the disruptive effects
TEER ([1]; vs control group): +
effect on overall efficacy, clinical score and colon length (in words) ([2]; 25 mg/kg PO daily): very strong effect
effect on the effects of DSS colitis (in words) ([2]; 25 mg/kg PO daily): alleviation of the effects of DSS colitis
Colon Length ([2]; 25 mg/kg PO daily, day twelve): ++
Clinical Score ([2]; 25 mg/kg PO daily, day twelve): ++
DSS Efficacy [2, 4]: ++
protection against colitis induced weight loss [2]: significant protection against colitis induced weight loss
colitis-induced weight loss ([2]; vs vehicle): significantly prevented
colon length shortening ([2]; vs vehicle): significantly prevented
IC50 5637: 10 to 20 µM
Appearance ([3]; 30 min): clear
Appearance ([3]; 1 h): clear
Appearance ([3]; 5 h): clear
Appearance ([3]; 24 h): clear
Appearance ([3]; 7 d): clear

COCCN1CCC(Nc2nc(N3CCC(F)(F)CC3)nc3cc(OCCCN4CCCC4)c(OC)cc23)CC1 [Compound 3, 2-(4,4-difluoropiperidin-1-yl)-6-methoxy-N-(1-(2-methoxyethyl)piperidin-4-yl)-7-(3-(pyrrolidin-1-yl)propoxy)quinazolin-4-amine]
IC50 5637: 5 to 10 µM
IC50 (A-498): 5 to 10 µM

COCCNc1nc(N2CCC(F)(F)CC2)nc2cc(OCCCN3CCCC3)c(OC)cc12 [Compound 4, 2-(4,4-difluoropiperidin-1-yl)-6-methoxy-N-(2-methoxyethyl)-7-(3-(pyrrolidin-1-yl)propoxy)quinazolin-4-amine]
IC50 5637: 10 to 20 µM

COc1cc2c(NCC3CCN(C)CC3)nc(N3CCC(F)(F)CC3)nc2cc1OCCCN1CCCC1 [Compound 5, 2-(4,4-difluoropiperidin-1-yl)-6-methoxy-N-((1-methylpiperidin-4-yl)methyl)-7-(3-(pyrrolidin-1-yl)propoxy)quinazolin-4-amine]
effect on the effects of DSS colitis (in words) ([2]; 25 mg/kg PO daily): alleviation of the effects of DSS colitis
Colon Length ([2]; 25 mg/kg PO daily, day twelve): +
Clinical Score ([2]; 25 mg/kg PO daily, day twelve): +
DSS Efficacy [2, 4]: +

COc1cc2c(Nc3ccncc3)nc(N3CCC(F)(F)CC3)nc2cc1OCCCN1CCCC1 [Compound 7, 2-(4,4-difluoropiperidin-1-yl)-6-methoxy-N-(pyridin-4-yl)-7-(3-(pyrrolidin-1-yl)propoxy)quinazolin-4-amine]
TEER [1, 6]: −
epithelial barrier resistance [1]: recovered epithelial barrier resistance levels back to those of untreated cells
DSS Efficacy ([2]; 25 mg/kg PO daily, day twelve): −
IC50 5637: 1 to 5 µM
IC50 (A-498): 1 to 5 µM

COc1cc2c(NC3CCN(C(C)C)CC3)nc(-n3ccnc3)nc2cc1OCCCN1CCCC1 [Compound 156, 2-(1H-imidazol-1-yl)-N-(1-isopropylpiperidin-4-yl)-6-methoxy-7-(3-(pyrrolidin-1-yl)propoxy)quinazolin-4-amine]
IC50 5637: 1 to 5 µM
IC50 (A-498): 5 to 10 µM

COc1cc2c(NC3CCOCC3)nc(N3CCCC3)nc2cc1OCCCN1CCCC1 [Compound 164, 6-methoxy-2-(pyrrolidin-1-yl)-7-(3-(pyrrolidin-1-yl)propoxy)-N-(tetrahydro-2H-pyran-4-yl)quinazolin-4-amine]
TEER [1, 6]: ++
DSS Efficacy ([2]; 25 mg/kg PO daily, day twelve): ++
IC50 5637: 5 to 10 µM

COc1cc2c(NC3CCOCC3)nc(N3CCC3)nc2cc1OCCCN1CCCC1 [Compound 174, 2-(azetidin-1-yl)-6-methoxy-7-(3-(pyrrolidin-1-yl)propoxy)-N-(tetrahydro-2H-pyran-4-yl)quinazolin-4-amine]
IC50 5637: 10 to 20 µM

COc1cc2c(NC3CCN(C(C)C)CC3)nc(N3CCC3)nc2cc1OCCCN1CCCC1 [Compound 234, 2-(azetidin-1-yl)-N-(1-isopropylpiperidin-4-yl)-6-methoxy-7-(3-(pyrrolidin-1-yl)propoxy)quinazolin-4-amine]
IC50 5637: 5 to 10 µM
IC50 (A-498): 5 to 10 µM

COc1cc2c(NC3CCN(C(C)C)CC3)nc(C#N)nc2cc1OCCCN1CCCC1 [Compound 235, 4-((1-isopropylpiperidin-4-yl)amino)-6-methoxy-7-(3-(pyrrolidin-1-yl)propoxy)quinazoline-2-carbonitrile]
IC50 5637: 5 to 10 µM
IC50 (A-498): 5 to 10 µM

COc1cc2c(NC3CCN(C(C)C)CC3)nc(N3CCC(F)(F)CC3)nc2cc1OCCCN1CCCC1 [Compound 400, 2-(4,4-difluoropiperidin-1-yl)-N-(1-isopropylpiperidin-4-yl)-6-methoxy-7-(3-(pyrrolidin-1-yl)propoxy)quinazolin-4-amine, reference compound]
epithelial barrier resistance [1]: increased intestinal permeability
TEER ([1]; vs control group): −
effect on the effects of DSS colitis (in words) ([2]; 25 mg/kg PO daily): no effect
Colon Length ([2]; 25 mg/kg PO daily, day twelve): −
Clinical Score ([2]; 25 mg/kg PO daily, day twelve): −
DSS Efficacy [2, 4]: −
DSS-induced weight loss ([2]; 50 mg/kg daily oral): failed to increase DSS-induced weight loss
Colon Length [2, 5]: not
IC50 (A-498): 10 to 20 µM
Appearance ([3]; 30 min): clear
Appearance ([3]; 1 h): clear
Appearance ([3]; 5 h): clear
Appearance ([3]; 24 h): clear
Appearance ([3]; 7 d): clear
